From patent US20170014375A1, “PHARMACEUTICAL COMPOSITION COMPRISING EFFECTIVE DOSE OF POMIFERIN FOR TREATING CANCERS” (Macau University of Science and Technology, priority 2015, published 2017)

What was measured:
HeLa cells = assay: Cytosolic calcium detection by flow cytometry (Fluo-3); format: cell-based, human; conditions: 10 μM, 10 min to 4 h, FIG. 4A
Method: Changes in intracellular free calcium are measured by a fluorescent dye, Fluo-3, as described previously^21. Briefly, HeLa cells are washed twice with MEM medium after pomiferin treatment (10 μM) for various times (10 min, 0.5 h, 1 h, 2 h, 4 h). Then cell suspensions are incubated with 5 μM Fluo-3 at 37° C. for 30 min. Then the cells are washed twice with HBSS. After re-suspended cell samples are subjected to FACS analysis, at least 10,000 events are analyzed.

[1] = test system: LLC-1 (mouse Lewis lung carcinoma) cells; assay: MTT cytotoxicity assay, LLC-1; format: cell-based; conditions: LLC1, 72 h, LLC-1 (Lung), 3 days, read-out: Means of IC50
Method: (§1) Pomiferin is dissolved in DMSO at a final concentration of 100 mmol/L and stored at −20° C. Cytotoxicity is assessed using the 3-(4,5-dimethylthiazol-2-yl)-2,5-diphenyltetrazolium bromide assay. 4000-8000 HeLa (human cervical cancer), MCF-7 (human breast cancer), HepG2 and Hep3B (human liver cancer), H1299 and A549 (human lung cancer), LNCap (human prostate cancer) and LLC-1 (mouse Lewis lung carcinoma) cells are seeded on 96-well plates per well. After overnight pre-incubation, the cells are exposed to different concentrations of pomiferin ([…]) for 3 days. Subsequently, 10 μL of MTT reagents is added to each well and incubated at 37° C. for 4 hours followed by the addition of 100 μL solubilization buffer (10% SDS in 0.01 mol/L HCl) and overnight incubation. Absorbance at 585 nm is determined from each well the next day. The percentage of cell viability is calculated using the following formula: Cell viability (%)=Cells number treated/Cells number DMSO control×100. Data are obtained from three independent experiments.

[2] = test system: HeLa (human cervical cancer) cells; assay: MTT cytotoxicity assay, HeLa; format: cell-based; conditions: 72 h, 3 days, read-out: Means of IC50
Method: as §1

[3] = test system: caspase WT, 3KO, 7KO, 3/7 DKO, 8KO, Bax-Bak WT and Bax-Bak DKO MEFs; assay: Endogenous autophagic LC3 puncta in apoptosis-resistant MEFs; format: cell-based, mouse; conditions: wild-type and apoptosis-resistant MEFs; FIG. 7
Method: Endogenous LC3 puncta formation is quantified as previously described^2. In brief, caspase wild-type (caspase WT), caspase-3 deficient (caspase 3KO), caspase-7 deficient (caspase 7KO), caspase-3/-7 deficient (caspase 3/7 DKO), caspase-8 deficient (caspase 8KO), Bax-Bak wild-type (Bak-Bak WT) and Bax-Bak double knock out (Bak-Bak DKO) MEFs are grown on coverslips in a 6-well plate are treated with […] of pomiferin. Both wild-type and deficient MEFs are then fixed in 4% paraformaldehyde for 20 minutes at room temperature and then rinsed with PBS. After washing with PBS, the cells are then incubated with anti-LC3 (1:200) in TBST (100 mM Tris HCl, pH 7.5, 150 mM NaCl, 0.05% Tween 20 and 5% BSA) overnight at 4. After washing with PBS, the cells are incubated with anti-mouse secondary antibody (TRITC) 1:200 in TBST containing 5% BSA at 37 for 1 hrs in the dark. The coverslips are then mounted with FluorSave™ mounting media (Calbiochem, San Diego, Calif., USA) for fluorescence imaging and localization of LC3 autophagosomes are captured under the API Delta Vision Live-cell Imaging System (Applied Precision Inc., GE Healthcare Company, Washington, USA).

[4] = test system: drug-resistant HCT-116 p53−/− colon cancer cells; assay: Annexin V/PI flow cytometry cell death, HCT-116 p53−/−; format: cell-based; conditions: 10 μM pomiferin alone, 24 h, FIGS. 9A & B
Method: Cell death is measured using an annexin V staining kit (BD Biosciences, San Jose, Calif., USA). Briefly, drug-resistant HCT-116 p53−/− deficient colon cancer cells are treated with the 10 μM pomiferin in the presence or absence of 5 mM autophagic inhibitor 3-MA or […] calcium chelator BAPTA/AM for 24 h. Cells are then harvested and analysed by multiparametric flow cytometry using FITC-Annexin V and Propidium iodide staining (BD Biosciences, San Jose, Calif., USA) according to the manufacturer's instructions. Flow cytometry is then carried out using a FACSCalibur flow cytometer (BD Biosciences, San Jose, Calif., USA). Data acquisition and analysis is performed with CellQuest (BD Biosciences, San Jose, Calif., USA). Data are obtained from three independent experiments.

[5] = test system: caspase-8 deficient (caspase 8KO) mouse embryonic fibroblasts; assay: MTT cytotoxicity assay, caspase 8KO MEFs; format: cell-based; conditions: Fibroblast, 72 h, 3 days, read-out: Means of IC50
Method: (§2) The test compound of pomiferin is dissolved in DMSO at a final concentration of 100 mmol/L and stored at −20° C. Cytotoxicity is assessed using the 3-(4,5-dimethylthiazol-2-yl)-2,5-diphenyltetrazolium bromide assay as previously described^29. 2500 of caspase wild-type (caspase WT), caspase-3 deficient (caspase 3KO), caspase-7 deficient (caspase 7KO), caspase-3/-7 deficient (caspase 3/7 DKO), caspase-8 deficient (caspase 8KO), Bax-Bak wild-type (Bak-Bak WT) and Bax-Bak double knock out (Bak-Bak DKO) mouse embryonic fibroblasts (MEFs) are seeded on 96-well plates per well. After overnight pre-incubation, the cells are exposed to different concentrations of pomiferin (namely 100, 50, 25, 12.5, 6.25, 3.125, 1.5625, 0.78, 0.39, 0.195, 0.079, 0.039 μmol/L) for 3 days. Subsequently, 10 μL of MTT reagents is added to each well and incubated at 37° C. for 4 hours, followed by the addition of 100 μL solubilization buffer (10% SDS in 0.01 mol/L HCl) and overnight incubation. Absorbance at 585 nm is determined from each well on the following day. The percentage of cell viability is calculated using the following formula: Cell viability (%)=Cells numbertreated/Cells numberDMSO control×100. Data is obtained from three independent experiments.

[6] = test system: MCF-7 (human breast cancer) cells; assay: MTT cytotoxicity assay, MCF-7; format: cell-based; conditions: MCF7, 72 h, MCF-7 (Breast), 3 days, read-out: Means of IC50
Method: as §1

[7] = test system: caspase-3/-7 deficient (caspase 3/7 DKO) mouse embryonic fibroblasts; assay: MTT cytotoxicity assay, caspase 3/7 DKO MEFs; format: cell-based; conditions: Fibroblast, 72 h, 3 days, read-out: Means of IC50
Method: as §2

[8] = test system: caspase wild-type (caspase WT) mouse embryonic fibroblasts; assay: MTT cytotoxicity assay, caspase WT MEFs; format: cell-based; conditions: Fibroblast, 72 h, 3 days, read-out: Means of IC50
Method: as §2

[9] = test system: H1299 (human lung cancer) cells; assay: MTT cytotoxicity assay, H1299; format: cell-based; conditions: NCI-H1299, 72 h, 3 days, read-out: Means of IC50
Method: as §1

CC(C)=CCc1c2c(c3occ(-c4ccc(O)c(O)c4)c(=O)c3c1O)C=CC(C)(C)O2 [pomiferin]
cytosolic calcium level (HeLa cells): increase the cytosolic calcium level in a time dependent manner
IC50 [1]: 3.82 µM
IC50 [2]: 7.36 µM
autophagy induction (endogenous LC3 puncta) [3]: able to induce autophagy in all these wild-type and apoptosis-resistant cells
cell death (in words) [4]: significantly induced cell death
IC50 [5]: 4.98 µM
IC50 [6]: 19 µM
IC50 [7]: 2.21 µM
IC50 [8]: 7.63 µM
IC50 [9]: 16.3 µM
